Assay results taken from patent US4499090A, “N-(5-aminomethyl-2-oxazolin-2-yl)-N'-phenylureas, compositions and use” (Societe Cortial, S.A., priority 1982, dated 1985).

Legend:
[1] = test system: arrhythmias in mice subjected to chloroform anesthesia; assay: Arrhythmias in mice subjected to chloroform anesthesia; format: in vivo; settings: intraperitoneally, 100 mg/kg
[2] = Toxicity determined in mice, oral and intraperitoneal administration; format: in vivo
Description: The toxicity was determined in mice for various ways of administration.

[3] = test system: edema of a rat's foot induced by carrageenan; assay: Edema of a rat's foot induced by carrageenan; format: in vivo; settings: orally, 200 mg/kg
[4] = test system: right auricle of a guinea pig; assay: Chronotropic effect induced by histamine on the spontaneously beating right auricle of a guinea pig; settings: Cavia porcellus, 100 microg/ml, 5 microg/ml of histamine
GABA transaminase = assay: Action on GABA transaminase, concluded from second administration of bicuculline; format: in vivo; settings: concluded from lack of inhibition of convulsions at second bicuculline administration 5 hours later
[5] = test system: convulsions induced by bicuculline; assay: Convulsions induced by injection of bicuculline; format: in vivo

In the case of CCN(CC)CC1CN=C(NC(=O)Nc2ccccc2)O1 (centres unmarked) [Example 1, N-(5-diethylaminomethyl-2-oxazolin-2-yl)-N'-phenylurea], the appearance of arrhythmias [1] is reported as “prevented the appearance of arrhythmias”, the mortality ([2]; intraperitoneally at 200 mg/kg) is reported as “did not cause any mortality” and the mortality ([2]; orally at 300 mg/kg) is reported as “did not cause any mortality”. The “inhibition of edema of a rat's foot induced by carrageenan” value [3] was 51% and the inhibition at 100 µg/mL [4] was greater than 50%.
For O=C(NC1=NCC(CN2CCCCC2)O1)Nc1ccccc1 (centres unmarked) [Example 2, N-Phenyl-N'-(5-piperidinomethyl-2-oxazoline-2-yl)urea], the appearance of arrhythmias [1] was “prevented the appearance of arrhythmias”, the mortality ([2]; intraperitoneally at 200 mg/kg) was “did not cause any mortality” and the mortality ([2]; orally at 300 mg/kg) was “did not cause any mortality”.
In the case of O=C(NC1=NCC(CN2CCc3ccccc3C2)O1)Nc1ccccc1 (centres unmarked) [Example 3], the mortality ([2]; intraperitoneally at 200 mg/kg) is reported as “did not cause any mortality”, the mortality ([2]; orally at 300 mg/kg) is reported as “did not cause any mortality” and the “action on GABA transaminase” value (GABA transaminase) is reported as “does not act on the GABA transaminase”. The type of activity ([5]; concluded from the bicuculline convulsion tests) was “direct gabergic type”, the “inhibition of convulsions induced by bicuculline” value ([5]; intraperitoneally, 80 mg/kg, 0.5 mg/kg of bicuculline 30 minutes later) was “caused an inhibition of convulsions” and the “inhibition of convulsions induced by a second administration of bicuculline” value ([5]; intraperitoneally, 80 mg/kg, second administration of bicuculline 5 hours later) was “no longer inhibits convulsions”.
